Converted amounts (≈) assume the structure as drawn.
How the values were obtained:
mouse brain cells = assay: Inhibitory effect on ROS production in brain cells (DCF-DA, NMDA-induced); format: cell-based; conditions: 24 h; dose suppressing 50% of production of reactive oxygen compared to control; mouse brain cells; read-out: ROS inhibitory effect ID50
Experimental: Oxidative stress was measured to test inhibitory effects on the production of reactive oxygen species (ROS) by using DCF-DA, which is a fluorescent probe. Brain cells were obtained from brain cortex of mouse to prepare cell solution with 2×10^6 cells/ml. Each brain cell was treated with 11 μM of DCF-DA followed by reaction in 37° C., 5% CO2 incubator for an hour. After washing twice, Compound 3 was treated with a concentration of 125 μg/ml and 250 μg/ml. At the same time, 300 μM of NMDA was treated and it was incubated in 37° C., 5% CO2 incubator for 24 hours.
(§1) ROS inhibitory effect of compounds was represented to the dose suppressing 50% of production of reactive oxygen compared to control. […] The activity of superoxide dismutase (SOD) was measured by using a kit acquired in Sigma.

thoracic aorta of rats = assay: Relaxing effect on thoracic aorta contracted by phenylephrine (organ bath); design: species or system rats of SD species; conditions: Rattus norvegicus; 67 μg/mL; phenylephrine 0.5 μM; mean n = 3; read-out: Relaxation percentage
Description: After male rats of SD species (250-300 g) were anesthetized by inhalation of ether, their thoracic aortas were extracted and put into a Krebs buffer (mM; NaCl 118, NaHCO3 27.3, KCl 4.8, MgSO4 1.2, KH2PO4 1.0, CaCl2 1.25, glucose 11.1). 2 mm of aortic ring was made under dissecting microscope and cultured in an organ bath to measure the tension of blood vessels. The organ bath was filled with Krebs buffer and saturated with 95% O2, 5% CO2 to maintain dissolved oxygen and physiological pH. Changing of tension was measured by a tension meter (Hugo-sachs, model K30) and recorded by physiological recorder (Coulbourn polygraph). The length of the blood vessels was increased step by step to make 1.0 g of basal tension for 90 minutes. The equilibrated blood vessel was contracted by phenylephrine (0.5 μM). When the contraction furrow reached equilibrium, compounds were added, followed by observation of relaxation response.

[1] = test system: mixed culture of nerve cells-glial cells; assay: Protecting effect on NMDA-induced nerve cell death (LDH release); format: cell-based, ICR mouse; conditions: 100 μM NMDA, LDH release after 24 hours
Experimental: Isolation and culture of nerve cells were performed by Choi's method (Choi, D. W. 1985, Neurosci. Lett., 58: 293-297). That is, the cortex was isolated in fetus ICR mouse that was 14 days pregnant, and then single cells were obtained from the tissue using pipette. The cells were aliquoted into 2×10^5/well density in a 24-well plate (Falcon) in which glial cells of cerebral cortex had been cultured in an incubator maintained at 37° C. with 5% CO2 for over 3 weeks. The culture medium was supplemented with MEM (minimum essential medium, Sigma), 2 mM glutamine, 21 mM glucose, 26.5 mM bicarbonate, 10% fetal bovine serum (FBS). In 3-5 days after aliquot, 10 μM Ara-C (cytosine arabinoside) was treated to suppress proliferation of neuroglia. And it was treated with 100 μM NMDA and 1 μg/mL or 2 μg/mL of each sample (compound) to induce the death of nerve cells due to excitable toxicity for 20 minutes, in 12-15 days after aliquot. Because of nerve cell death, lactate dehydrogenase (LDH) accumulated in proportion to the number of dead cells. In 24 hours after drug treatment, the amount of dehydrogenase (LDH) released to outside of cells was measured by using an […] measurement kit (CytoTox 96, Promega). After the reaction was completed, the change of absorbance depending on the amount of LDH was measured by using a microplate spectrophotometer.

[2] = test system: pentylentetrazole (PTZ)-induced convulsion; assay: Anti-convulsant effect, pentylentetrazole (PTZ) test; format: in vivo; conditions: 10 mg/kg intraperitoneally, PTZ 80 mg/kg subcutaneously; for mortality rate / Induction percentage of convulsion: (animals/total); for mortality rate: negative control 70(17/23); for Induction percentage of convulsion: negative control 100(23/23); for Initiation time of convulsion: negative control 5.0 ± 0.7; for Duration of convulsion: negative control 46.7 ± 3.3
Experimental: An experiment was performed by the method of Ali et al. (Ali, A. et al. 2006, Pharmacological Reports, 58: 242-245). A 10 mg/kg dose of compound was intraperitoneally administered to identify the anti-convulsant effect and the effect was observed (Table 8). Researching the process of activity was performed by the Anti-epileptic Drug Development Program (ADD) of NIH during development of the anti-convulsant drug. One of the assessed items of anti-convulsant activity in the first step of this program is the pentylentetrazole (PTZ) test. […] After 10 mg/kg of the testing drug was administered, assessment was performed by estimating the initiation time of convulsion, duration until convulsion completely disappeared and mortality rate. It was assessed as having an anti-convulsant effect when a single episode of clonic spasm was not shown over 5 seconds on at least one of the 4 laboratory animals after PTZ administration.

[3] = test system: superoxide dismutase (SOD); assay: Increase of superoxide dismutase (SOD) activity in mouse brain cells; format: cell-based; conditions: 100 μg/ml
Experimental: as §1

| Molecule | IC50 (mouse brain cells) [µg/mL] | inhibition at 67 µg/mL (thoracic aorta of rats) [%] | Inhibitory effect of cell death by NMDA-induced excitable neurotoxicity ([1]; 1 μg/ml compound) [%] | Inhibitory effect of cell death by NMDA-induced excitable neurotoxicity ([1]; 2 μg/ml compound) [%] | mortality rate [2] | Induction percentage of convulsion [2] | Initiation time of convulsion [2] [min] | Duration of convulsion [2] [min] | Increase of SOD activity, compared to control [3] |
| --- | --- | --- | --- | --- | --- | --- | --- | --- | --- |
| O=c1[nH]c2ccccc2c(=O)n1CCCCNCCCn1c(=O)[nH]c2ccccc2c1=O [Compound 7, 3-{4-[3-(2,4-dioxo-1,4-dihydro-2H-quinazolin-3-yl)propylamino]butyl}-1H-quinazoline-2,4-dione] | 17.7 ± 17.3 (≈ 40.6 µM) | 56.8 | 26.0 | 39.7 | 67(4/6) % | 100(6/6) % | 3.1 ± 0.3 | 42.9 ± 8.7 | – |
| CCCCCCn1c(=O)n(CCCNCCCCNCCCn2c(=O)c3ccccc3n(CCCCCC)c2=O)c(=O)c2ccccc21 [Compound 33, 1-hexyl-3-(3-{4-[3-(1-hexyl-2,4-dioxo-1,4-dihydro-2H-quinazolin-3-yl)propylamino]butylamino}propyl)-1H-quinazoline-2,4-dione] | 173 ± 19.7 (≈ 261 µM) | 38.5 | 14.6 | 65.1 | 83(5/6) % | 100(6/6) % | 16.1 ± 2.2 | 36.6 ± 7.6 | – |
| Cn1c(=O)n(CCCN(CCCCN(CCCn2c(=O)c3ccccc3n(C)c2=O)C(=O)OC(C)(C)C)C(=O)OC(C)(C)C)c(=O)c2ccccc21 [Compound 26, (4-{tert-butoxycarbonyl-[3-(1-methyl-2,4-dioxo-1,4-dihydro-2H-quinazolin-3-yl)propyl]amino}butyl)-[3-(1-methyl-2,4-dioxo-1,4-dihydro-2H-quinazolin-3-yl)propyl]carbamic acid tert-butyl ester] | – | 3.7 | 8.8 | 29.7 | 50(3/6) % | 83(5/6) % | 15.4 ± 9.0 | 33.0 ± 9.5 | 0.7 ± 5.7 |
| CC(=O)N(CCCCN(CCCn1c(=O)[nH]c2ccccc2c1=O)C(C)=O)CCCNC(=O)c1ccc(O)cc1 [Compound 21, N-{3-[acetyl-(4-{acetyl-[3-(2,4-dioxo-1,4-dihydro-2H-quinazolin-3-yl)propyl]amino}butyl)amino]propyl}-4-hydroxybenzamide] | – | 2.6 | 19.6 | 16.6 | 0(0/6) % | 67(4/6) % | 22.2 ± 11.9 | 6.7 ± 3.1 | −0.3 ± 3.7 |
| 3-[3-(4-{N-[3-(2,4-dioxo-1,4-dihydro-2H-quinazolin-3-yl)propyl]-N-benzylamino}butyl)-N-benzylamino]propyl-1H-quinazoline-2,4-dione [Compound 15] | – | – | 22.4 | 22.3 | 83(5/6) % | 83(5/6) % | 25.7 ± 7.2 | 34.3 ± 7.2 | 1.3 ± 3.1 |
| O=C(NCCCNCCCCNCCCn1c(=O)[nH]c2ccccc2c1=O)c1ccc(O)cc1 [Compound 8, N-(3-{4-[3-(2,4-dioxo-1,4-dihydro-2H-quinazolin-3-yl)propylamino]butylamino}propyl)-4-hydroxybenzamide] | 103 ± 20.4 (≈ 220 µM) | 35.7 | 20.0 | 28.2 | – | – | – | – | – |
| CC(C)(C)OC(=O)N(CCCCN(CCCn1c(=O)[nH]c2ccccc2c1=O)C(=O)OC(C)(C)C)CCCn1c(=O)[nH]c2ccccc2c1=O [Compound 17, (4-{tert-butoxycarbonyl-[3-(2,4-dioxo-1,4-dihydro-2H-quinazolin-3-yl)propyl]amino}butyl)-[3-(2,4-dioxo-1,4-dihydro-2H-quinazolin-3-yl)propyl]carbamic acid tert-butyl ester] | – | 51.7 | 21.0 | 10.7 | – | – | – | – | 0.3 ± 0.0 |
| O=C(N(CCCCNCCCn1c(=O)[nH]c2ccccc2c1=O)CCCn1c(=O)[nH]c2ccccc2c1=O)C(F)(F)F [Compound 36, N-[3-(2,4-dioxo-1,4-dihydro-2H-quinazolin-3-yl)propyl]-N-{4-[3-(2,4-dioxo-1,4-dihydro-2H-quinazolin-3-yl)propylamino]butyl}-2,2,2-trifluoroacetamide] | – | – | 32.2 | 18.4 | 33(2/6) % | 100(6/6) % | 8.9 ± 2.3 | 25.1 ± 9.7 | 4.9 ± 1.2 |
| CC(C)(C)OC(=O)N(CCCCNCCCn1c(=O)[nH]c2ccccc2c1=O)CCCn1c(=O)[nH]c2ccccc2c1=O [Compound 11, [3-(2,4-dioxo-1,4-dihydro-2H-quinazolin-3-yl)propyl]-{4-[3-(2,4-dioxo-1,4-dihydro-2H-quinazolin-3-yl)propylamino]butyl}carbamic Acid tert-butyl ester] | – | 10.9 | 15.0 | – | 17(1/6) % | 100(6/6) % | 10.1 ± 4.9 | 44.9 ± 5.8 | 2.3 ± 3.4 |
| CCOC(=O)N(CCCCN(CCCn1c(=O)[nH]c2ccccc2c1=O)C(=O)OCC)CCCn1c(=O)[nH]c2ccccc2c1=O [Compound 16, [3-(2,4-dioxo-1,4-dihydro-2H-quinazolin-3-yl)propyl]-(4-{[3-(2,4-dioxo-1,4-dihydro-2H-quinazolin-3-yl)propyl]ethoxycarbonylamino}butyl)carbamic Acid ethyl ester] | – | – | 18.1 | – | 0(0/6) % | 100(6/6) % | 7.6 ± 1.7 | 6.4 ± 2.3 | 7.5 ± 2.3 |

— US8404696B2, “Quinazoline-2,4-dione derivative, and medical compositions for the prophylaxis and treatment of cranial nerve disease containing the same” (Shin Poong Pharmaceutical Co., Ltd., priority 2008, dated 2013)
